Source: patent US9198916B1, “Compounds and methods for treating tumors” (B&G Partners, LLC, priority 2014, dated 2015)
Like-named read-outs stand apart in the source and are kept apart here.

Columns and labels:
[1] = target: hERG (human ether-à-go-go-related gene) potassium channel current (Homo sapiens, UniProt Q12809); assay: cell-based
Description: All chemicals used in solution preparation were purchased from Sigma-Aldrich (St. Louis, Mo.) unless otherwise noted and were of ACS reagent grade purity or higher.
The duration of exposure to each test article concentration was 3 minutes.

[2] = Repeated dose intraperitoneal (IP) BID study in mice, plasma concentration by LC-MS/MS and PK fit; parameters: species or system female CD-1 mice; conditions: female, CD-1, mouse, in vivo, fitted, repeated-dose single-compartment first-order absorption model, 10 mg/kg IP BID; for half-life: ip, 10 mg/kg
Description: A total of 204.47 mg of the compound of Example 1 was weighed out in a sterile vial on an analytical balance, and a 10.22 ml volume of sterile DMSO containing 5% by volume sterile Tween 80 was added to the vial under a Class II sterile hood and mixed until fully dissolved to produce a 20 mg/ml stock solution of the compound of Example 1. The stock solution was split into 1.2 ml aliquots in sterile glass vials and stored frozen at −80° C.
Sterile 1.0 mg/ml injection solution of the compound of Example 1 was formulated in normal saline containing 4.75% DMSO and 0.25% Tween 80. A visible precipitate formed without the addition of at least 0.1% Tween 80. The injection solution was prepared by thawing one aliquot of sterile 20 mg/ml stock solution, and adding 0.526 cc of stock solution to a 10 ml sterile vial of USP 0.9% sodium chloride for injection (Hospira) to yield the desired concentrations of 1.0 mg/ml o the compound of Example 1, 4.75% DMSO, and 0.25% Tween 80. The injection solution was gently mixed until fully dissolved. […] Injection solution was stored at 4° C. for up to five days after preparation, after which it was considered expired and discarded.
A total of 16 female CD-1 mice with an age of approximately 8-10 weeks (25-30 g) were used in this repeated dosing study. Each animal was weighed on the days 1, 4, 8, 11, and 15 during treatment. A 10 mg/kg dose of the compound of Example 1 was provided by IP injection of 10 ml/kg of 1.0 mg/ml injection solution to each animal every 12.0±0.5 hr. The injection solution was removed from the refrigerator and allowed to warm at room temperature for several minutes. The septum of the injection solution was wiped with sterile alcohol, and animals received 10 ml/kg by individual insulin syringes (one syringe per animal per injection), with the injection volume calculated using the most recent weighing for each individual animal. IP injections were staggered between the left and right side of the abdomen from one dosing to the next. […] The injection solution was returned to refrigerated storage after the last animal. […]

hERG (human ether-à-go-go-related gene) potassium channel current, sequence (Q12809 whole entry): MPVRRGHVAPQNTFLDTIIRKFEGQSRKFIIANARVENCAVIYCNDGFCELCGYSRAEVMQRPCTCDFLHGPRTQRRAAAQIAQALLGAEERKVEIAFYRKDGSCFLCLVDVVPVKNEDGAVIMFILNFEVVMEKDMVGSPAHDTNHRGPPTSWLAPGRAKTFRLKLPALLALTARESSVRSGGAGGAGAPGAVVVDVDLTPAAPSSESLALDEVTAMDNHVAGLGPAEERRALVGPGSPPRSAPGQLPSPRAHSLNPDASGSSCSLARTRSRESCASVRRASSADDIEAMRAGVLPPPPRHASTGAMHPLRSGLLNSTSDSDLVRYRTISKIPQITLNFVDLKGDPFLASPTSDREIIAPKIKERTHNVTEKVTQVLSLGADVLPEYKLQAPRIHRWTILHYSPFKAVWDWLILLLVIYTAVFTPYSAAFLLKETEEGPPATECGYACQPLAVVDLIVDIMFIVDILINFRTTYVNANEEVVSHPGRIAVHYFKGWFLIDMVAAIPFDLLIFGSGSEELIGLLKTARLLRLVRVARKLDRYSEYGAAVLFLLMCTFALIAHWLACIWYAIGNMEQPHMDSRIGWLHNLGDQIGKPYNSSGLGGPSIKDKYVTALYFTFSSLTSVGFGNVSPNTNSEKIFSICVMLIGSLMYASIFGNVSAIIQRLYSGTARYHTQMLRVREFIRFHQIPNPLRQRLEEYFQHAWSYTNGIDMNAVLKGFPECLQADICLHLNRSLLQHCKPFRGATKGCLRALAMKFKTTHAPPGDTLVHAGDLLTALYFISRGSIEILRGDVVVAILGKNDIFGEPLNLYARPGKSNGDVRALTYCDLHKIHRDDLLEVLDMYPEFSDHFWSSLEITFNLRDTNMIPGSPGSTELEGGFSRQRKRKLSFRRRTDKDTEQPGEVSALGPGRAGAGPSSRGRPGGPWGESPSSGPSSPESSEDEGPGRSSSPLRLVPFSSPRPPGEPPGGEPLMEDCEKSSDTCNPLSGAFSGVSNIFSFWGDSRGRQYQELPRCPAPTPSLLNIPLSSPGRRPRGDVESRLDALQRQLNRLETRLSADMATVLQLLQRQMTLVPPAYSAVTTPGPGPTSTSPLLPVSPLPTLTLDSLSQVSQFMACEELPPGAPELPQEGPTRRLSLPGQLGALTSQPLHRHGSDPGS

For `CSc1ccc2c(c1)N(CCC1CCCCN1)c1ccccc1S2.Cl` (stereo not shown) [Example 1, 2-(methylsulfanyl)-10-[2-(piperidin-2-yl)ethyl]-10H-phenothiazine hydrochloride], the IC50 [1] was 1550 nM, the Vd/F ([2]; read-out: apparent volume of distribution (V/F)) was 8 L/kg and the half-life ([2]; read-out: absorption half-life (converted)) was 28.8 min. The half-life ([2]; read-out: elimination half-life (converted)) was 882 min.
